In PubChem BioAssay (NCI):
Several values for one entry are separate records, joined by “and”; a condition that tells them apart may be missing. Equal values may be shown once.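 In this assay, cells in 96-well plates receive the compound at five concentrations for 48 hours. Endpoints are linearly interpolated between the surrounding concentrations. GI50 is the concentration that inhibits growth by half. TGI marks complete inhibition of growth.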

Tests used:
Experiment in all cases: growth of human tumour cells (NCI), 48 h
A498 renal = tested on: A498 renal
SW-620 colon = tested on: SW-620 colon
COLO 205 colon = tested on: COLO 205 colon
SN12C renal = tested on: SN12C renal
SK-OV-3 ovarian = tested on: SK-OV-3 ovarian
MCF7 breast = tested on: MCF7 breast
MDA-MB-231 breast = tested on: MDA-MB-231 breast
HOP-62 NSCLC = tested on: HOP-62 NSCLC
A549 NSCLC = tested on: A549 NSCLC
PC-3 prostate = tested on: PC-3 prostate

Row | Structure (SMILES) | GI50 (A498 renal) [µM] | TGI (A498 renal) | GI50 (SW-620 colon) [µM] | TGI (SW-620 colon) [µM] | GI50 (COLO 205 colon) | TGI (COLO 205 colon) | GI50 (SN12C renal) | TGI (SN12C renal) | GI50 (SK-OV-3 ovarian) [µM] | TGI (SK-OV-3 ovarian) | GI50 (MCF7 breast) [µM] | TGI (MCF7 breast) [µM] | GI50 (MDA-MB-231 breast) | TGI (MDA-MB-231 breast) | GI50 (HOP-62 NSCLC) [µM] | TGI (HOP-62 NSCLC) | GI50 (A549 NSCLC) [µM] | TGI (A549 NSCLC) | GI50 (PC-3 prostate) [µM] | TGI (PC-3 prostate)
1 | CCN1C(=O)N(CC)C2C1NN=c1s/c(=C\c3cc4ccccc4[nH]3)c(=O)n12 (configuration not stated) | 0.0108 | 0.0628 µM | 0.0277 | > 100 | 0.0201 µM | 0.0448 µM | 0.0241 µM | 14.6 µM | 0.0246 | 17.3 µM | < 0.01 | 14.6 | 0.0118 µM | 27 µM | 0.0412 | 18.7 µM | 0.0433 | > 100 µM | < 0.015 | > 100 µM
2 | CCCCNC(=O)NS(=O)(=O)c1ccc(N2N=C(c3cc(C)ccc3C)CC2c2cc(OC)c(OC)c(OC)c2)cc1 (configuration not stated) | 2.31 | 6.01 µM | 3.26 | 12.8 | 2.6 µM | 5.19 µM | 3.36 µM | 13.4 µM | 3.53 | 10.1 µM | 2.06 | 5.58 | 2.36 µM | 6.39 µM | 3.15 | 10.2 µM | 2.53 | 9.78 µM | 1.94 | 10.4 µM
3 | Clc1nc(Cl)c(-c2ccccc2)c(Cl)n1 |  | 30.1 µM |  | 5.34 |  | 3.6 µM |  | 8.84 µM |  | 23.3 µM |  | 9.45 |  | 10.7 µM |  | 33 µM |  | 36.1 µM |  | 16.5 µM
4 | Nc1nc(N)c(N=O)c(OCC2CCCCC2)n1 |  | 43 µM and 50.2 µM | 20.4 | > 100 | 15.1 µM | 37.4 µM and 33.8 µM | 5.87 µM | > 100 µM and 62.8 µM | 27.9 | > 80.9 µM and 74.3 µM | 3.46 | > 100 | 8.07 µM | 77.9 µM and > 31.4 µM |  | > 100 µM and 76.5 µM | 15 | > 100 µM and 79.7 µM | 3.23 | > 100 µM and 22.9 µM
5 | O=C(c1cccnc1)c1cc(-c2ccccn2)c(=O)n2ccccc12 | > 100 | > 100 µM | > 100 | > 100 | > 100 µM | > 100 µM | > 100 µM | > 100 µM | > 100 | > 100 µM | > 100 | > 100 | > 100 µM | > 100 µM | > 100 | > 100 µM | > 100 | > 100 µM | > 100 | > 100 µM
6 | OCC1OC(n2cnc3c(=S)nc[nH]c32)C(O)C1O (configuration not stated) | 19.8 | > 2380 µM | 7.29 | > 2500 | 8.34 µM | > 2450 µM | 34.3 µM | > 2500 µM | 1.25 | 1060 µM and > 47.4 µM | 1.82 | > 2500 | 14.1 µM | > 2500 µM | 1.48 | > 2500 µM | 42.5 | > 2500 µM | 6.71 | > 2500 µM
7 | O=C(CCCSc1nc(-c2ccccc2)cc(-c2ccc(Cl)cc2)n1)NO | 1.7 | 4.7 µM | 1.66 | 13 | 2.9 µM | 12.1 µM | 1.18 µM | 7.72 µM | 3.12 | 12.4 µM | 2.29 | 12.4 | 2.12 µM | 11.6 µM | 1.04 | 17.4 µM | 2.31 | 12.4 µM | 2.19 | 12.3 µM
8 | O=C(CN1CCN(c2ccccc2)CC1)N1CCN(c2nnc(-c3ccc(Cl)cc3)c(-c3ccc(Cl)cc3)n2)CC1 | 9.67 | 78 µM | 16.1 | > 100 | 3.61 µM | 27.7 µM | 13 µM | > 100 µM | > 100 | > 100 µM | 3.08 | 19.6 | 21.9 µM | > 100 µM | 20.5 | 75.9 µM | 9.86 | > 100 µM | 7.44 | > 100 µM
9 | CCN(CC)c1ccc(C(=N)c2ccc(N(C)C)cc2)cc1 | 1.17 | 6.32 µM | 0.174 | 5.63 | 0.197 µM | 3.06 µM | 2.36 µM | 9.14 µM | 2.15 | 10.4 µM | 0.197 | 7.25 | 1.33 µM | 3.87 µM | 1.55 | 12.2 µM | 1.62 | 11.4 µM | 0.284 | 7.05 µM
10 | c1ccc(CSc2nnc3c4ccccc4c4ccccc4c3n2)cc1 |  | > 100 µM |  | > 100 |  | > 100 µM |  | > 100 µM |  | 50 µM |  | > 100 |  | > 100 µM |  | 75.6 µM |  | > 100 µM |  | > 100 µM
11 | S=C(Nc1cc(Cl)c(Cl)cc1Cl)SCc1ccccc1 |  | 82.5 µM |  | > 100 |  | > 100 µM |  | > 100 µM |  | > 100 µM |  | > 100 |  | 29.6 µM |  | 56 µM |  | > 100 µM |  | > 100 µM
12 | c1ccc(P(CCP(CCP(c2ccccc2)c2ccccc2)c2ccccc2)CCP(c2ccccc2)c2ccccc2)cc1 (configuration not stated) |  | > 10 µM |  | > 10 | > 10 µM and 2.08 µM | > 10 µM | > 10 µM and 3.94 µM | > 10 µM |  | > 10 µM |  | 3.04 | > 10 µM and 3.58 µM | > 10 µM |  | > 10 µM |  | > 10 µM | > 10 | > 10 µM
13 | Nc1n[nH]c2ccc([C@@H]3Nc4ccc5[nH]ncc5c4[C@H]4C5C=CC(C5)[C@@H]34)cc12 (some centres not stated) | 0.0876 | 0.492 µM | 0.367 | 40.4 | 0.332 µM | 1.83 µM | 0.52 µM | 28.2 µM | 1.03 | 42.8 µM | 0.14 | 19 | 0.694 µM | 12.4 µM | 0.52 | 20.7 µM | 0.444 | > 85.2 µM | 0.407 | 22.7 µM
